# ChEMBL document CHEMBL3045283, “Synthesis and biological activity of heterocycles from chalcone” (2008)
# Calls of active or inactive are those of the source. The rule behind the calls is not given here.
# Key:
# [1] = system: Salmonella typhimurium; assay: Antibacterial activity against Salmonella enterica subsp. enterica serovar Typhimurium at 1000 ug/disc; format: functional, organism-based
# [2] = system: Escherichia coli; assay: Antibacterial activity against Escherichia coli at 1000 ug/disk; format: functional
# [3] = system: Bacillus subtilis; assay: Antibacterial activity against Bacillus subtilis at 1000 ug/disk; format: functional; conditions: read-out: IZ
# [4] = system: Staphylococcus aureus; assay: Antibacterial activity against Staphylococcus aureus at 1000 ug/disc; format: functional
SMILES,inhibition zone (IZ) [1],inhibition zone (IZ) [2],zone of inhibition at 1000 µg/disc [3] [mm],inhibition zone (IZ) [4],zone of inhibition at 1000 µg/disc ([2]; read-out: IZ) [mm],zone of inhibition at 1000 µg/disc ([4]; read-out: IZ) [mm]
O=c1oc2ccccc2c(O)c1C1=NN(c2ccccc2)C(c2cnn(-c3ccccc3)c2-c2ccccc2O)C1 (configuration not stated),inactive,inactive,10,inactive,–,–
O=C(/C=C/c1coc2ccccc2c1=O)c1c(O)c2ccccc2oc1=O,inactive,inactive,12,inactive,–,–
O=c1oc2ccccc2c(O)c1C1=NNC(c2cn[nH]c2-c2ccccc2O)C1 (configuration not stated),inactive,–,25,–,12,20
